# Reference: paper PMC10830684, “Effect of Oregon grape root extracts on P-glycoprotein mediated transport in in vitro cell lines” (Journal of Pharmacy & Pharmaceutical Sciences, 2024)
# Where a name gives a salt, the structure may show the parent alone. Read-outs that look alike come from different tables or passages of the source.
# Columns and labels:
# [1] = target: P-glycoprotein (Homo sapiens, UniProt P08183); assay: Effect on 3H-CsA and 3H-digoxin transport in Caco-2 cells; settings: Caco-2 cells
# Chain of P-glycoprotein (P08183 whole entry): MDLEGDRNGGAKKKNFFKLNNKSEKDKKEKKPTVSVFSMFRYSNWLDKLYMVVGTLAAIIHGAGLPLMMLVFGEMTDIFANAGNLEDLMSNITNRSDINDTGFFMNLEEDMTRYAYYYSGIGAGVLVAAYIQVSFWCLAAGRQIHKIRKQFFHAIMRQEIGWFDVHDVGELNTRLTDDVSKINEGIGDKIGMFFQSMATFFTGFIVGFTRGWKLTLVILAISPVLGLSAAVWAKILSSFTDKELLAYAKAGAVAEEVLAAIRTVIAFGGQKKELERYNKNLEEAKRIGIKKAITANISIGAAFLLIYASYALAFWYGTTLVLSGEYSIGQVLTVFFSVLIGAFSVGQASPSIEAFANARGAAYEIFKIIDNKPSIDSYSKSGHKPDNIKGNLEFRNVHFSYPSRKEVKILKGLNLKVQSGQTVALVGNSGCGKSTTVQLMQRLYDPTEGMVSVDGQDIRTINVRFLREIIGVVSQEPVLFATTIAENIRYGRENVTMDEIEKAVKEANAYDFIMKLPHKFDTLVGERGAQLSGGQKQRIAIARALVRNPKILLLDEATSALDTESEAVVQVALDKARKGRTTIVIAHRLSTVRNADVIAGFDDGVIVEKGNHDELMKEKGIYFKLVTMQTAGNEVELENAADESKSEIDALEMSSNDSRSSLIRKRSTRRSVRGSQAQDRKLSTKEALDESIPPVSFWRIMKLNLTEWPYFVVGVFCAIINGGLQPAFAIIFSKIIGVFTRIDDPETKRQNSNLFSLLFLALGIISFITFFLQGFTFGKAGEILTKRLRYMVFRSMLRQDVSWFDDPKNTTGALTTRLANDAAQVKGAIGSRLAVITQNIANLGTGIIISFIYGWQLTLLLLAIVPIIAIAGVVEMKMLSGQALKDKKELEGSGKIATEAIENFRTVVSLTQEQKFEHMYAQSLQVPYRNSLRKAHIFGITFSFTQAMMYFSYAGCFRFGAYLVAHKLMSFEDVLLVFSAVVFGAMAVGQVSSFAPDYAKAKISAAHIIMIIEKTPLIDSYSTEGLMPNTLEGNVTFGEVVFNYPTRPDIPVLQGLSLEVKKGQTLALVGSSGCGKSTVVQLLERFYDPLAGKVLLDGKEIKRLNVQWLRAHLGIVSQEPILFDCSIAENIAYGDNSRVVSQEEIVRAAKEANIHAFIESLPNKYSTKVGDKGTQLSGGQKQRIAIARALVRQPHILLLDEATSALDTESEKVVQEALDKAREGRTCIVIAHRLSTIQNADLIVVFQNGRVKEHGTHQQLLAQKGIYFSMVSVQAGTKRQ
# [2] = test system: Caco-2 cells; assay: MTT cytotoxicity assay in Caco-2 cells; format: cell-based, human; settings: for MTT assay: 4 hours exposure
# Source text: (§1) We initiated cytotoxicity experiments with the Caco-2, MDCKII-MDR1 and MDCKII-wild type cells on Day 7 (Caco-2) and Day 4 (MDCKII-MDR1 and MDCKII-wild type) after the initial plating of the cells at 2.5 × 10^3 cells/well in 48-well plates (Becton Dickinson, Franklin Lakes, NJ, USA). See details of preparation for the cytotoxicity experiments in Supplementary Material.
# (§2) We initiated cytotoxicity experiments with the Caco-2, MDCKII-MDR1 and MDCKII-wild type cells on Day 7 (Caco-2) and Day 4 (MDCKII-MDR1 and MDCKII-wild type) after the initial plating of the cells at 2.5x10^3 cells/well in 48-well plates (Becton Dickinson, Franklin Lakes, NJ, USA). Stock solutions of 10 mM berberine or berbamine were prepared by dissolving the compounds in DMSO (berberine) or distilled water (berbamine).
# (§3) The LDH enzymatic activities were assayed using the method of Mitchell et al.(1). […] Enzyme leakage into the medium was expressed as the percentage of total cellular LDH. The MTT (3-(4,5-dimethythiazole-2yl)-2,5-diphenyl tetrazolium bromide) reduction assay was done according to Mosmann (2). This assay was conducted immediately with the same cells used in the LDH study. The results were expressed as the percentage of negative controls.
# [3] = test system: MDCKII-MDR1 cells; assay: MTT cytotoxicity assay in MDCKII-MDR1 cells; format: cell-based, Canine; settings: 4 hours exposure
# Source text: as §1
# (§4) We initiated cytotoxicity experiments with the Caco-2, MDCKII-MDR1 and MDCKII-wild type cells on Day 7 (Caco-2) and Day 4 (MDCKII-MDR1 and MDCKII-wild type) after the initial plating of the cells at 2.5x10^3 cells/well in 48-well plates (Becton Dickinson, Franklin Lakes, NJ, USA). Stock solutions of 10 mM berberine or berbamine were prepared by dissolving the compounds in DMSO (berberine) or distilled water (berbamine). […] The final concentration of DMSO was 0.003% (v/v), 0.03% (v/v), 0.3% (v/v), 1% (v/v), 1.5% (v/v), and 3% (v/v) DMSO/culture medium for 0.3 μM, 3 μM, 30 μM, 100 μM, ,150 μM, and 300 μM, respectively. The final concentration of ethanol was 0.15% (v/v) ethanol/culture medium. Ketoconazole (75 µM) was used as a positive control and no treatment (medium alone) was used as a negative control for each experiment.
# as §3
# [4] = Transepithelial transport of berberine and berbamine across Caco-2 cells; format: in vitro ADME, human; settings: human
# Description: (§5) Transport of ^3H-CsA and ^3H-digoxin (0.5 µM and 1.0 µCi), MDR1 substrates, were performed using transport buffer consisting of HBSS with 10 mM HEPES and 25 mM D-glucose at a pH of 6.8 for the apical (A) compartment and 7.4 for the basolateral (B) compartment. Experiments were performed at 37°C, 5% CO2, and 95% relative humidity. Cells in the Transwell® inserts were washed 3 times with a transport buffer and allowed to equilibrate for 30 min prior to the addition of test compounds. […] To evaluate the efflux mechanism involved with berberine and berbamine, 100 µM of berberine and berbamine were placed in the donor chamber and 100 µL samples were collected in the receiver chamber at 0, 0.5, 1.0, 1.5, 2.0, 2.5, and 3.0 h and analyzed by HPLC. Each experiment was performed in duplicate and repeated for each condition tested. For experiments performed in “non-sink” conditions, 100 µL aliquots were taken from the donor and receiver chambers at the beginning and from the receiver chamber at 0.5, 1.0, 1.5, 2.0, 2.5, and 3.0 h. An equal volume of 100 µL was replaced in the chamber at each sample time point. “Non-sink” conditions were performed when less than 10% of compound is transported across cells during the transport experiment such that a concentration gradient was always present. For the “sink” condition experiments, the entire receiver volume was replaced at each time interval and a 100 µL aliquot was taken from the receiver volume for scintillation counting. A 100 µL sample was taken from the donor chamber at 3 h in order to calculate the mass balance of radioactivity to determine if adsorption to the cell culture transport apparatus had occurred. Each sample was placed in 0.9 mL of scintillation fluor (Cytoscint ES, ICN, Cosa Mesa, CA, USA) and read on a Beckman LS 6500 (Palo Alto, CA, USA) scintillation counter for ^3H activity. For berberine and berbamine analysis, 100 µL aliquot was assayed by HPLC.
# (§6) The apparent permeability (Papp) was calculated using the following equation [40]: Papp=dQ/dt×1/A×C0
# (§7) Where A is the surface area of the monolayer (4.71 cm^2) and C0 is the initial concentration of radiolabeled probe substrate in the donor compartment. dQ/dt is the slope of the steady-state rate constant. The efflux ratio was determined by dividing the Papp in the B to A direction by the Papp in the A to B direction: Efflux ratio=PappB to A/PappA to B
# (§8) A Waters 2690 separations module with a Model 996 photodiode array detector with the Millennium 32 Chromatograph Manager version 3.0 software (Waters Corporation, Milford, MA, USA) was used for HPLC analysis. […] All the standards and samples were filtered (0.2 µm) prior to injection. Ten µL was injected onto a 250 × 4.6 mm i.d., […], Zorbax Eclipse X DB-C18 Column (Agilent Technologies, Palo Alto, CA, USA) with a 3.9 × 20 mm i.d. Symmetry® C18 guard column, with an isocratic mobile phase of 32:68 acetonitrile:buffer. The buffer consisted of 30 mM ammonium acetate and 14 mM TEA and was adjusted to pH 4.85 with acetic acid. A flow rate of 1 mL/min and UV absorption at 254 nm was used for analysis. The retention time of berberine and berbamine was 7.84 min and 3.03 min, respectively. The cumulative amount of transport was determined using the corresponding peak area for berberine or berbamine. The cumulative amount of berberine or berbamine transported across the cell membrane was evaluated as a functionof time. The Papp was calculated by the following equation: […]
# [5] = test system: Caco-2 cells; assay: as above; format: in vitro ADME, human
# Description: as §5, §6, §7, §8
# [6] = test system: MDCKII wild-type cells; assay: MTT cytotoxicity assay in MDCKII wild-type cells; format: cell-based, Canine; settings: MDCKII-WT cells, 4 hours exposure
# Source text: as §1, §4, §3
# [7] = test system: Caco-2 cells; assay: LDH leakage cytotoxicity assay in Caco-2 cells; format: cell-based, human; settings: 300 µM, 4 hours exposure
# Source text: as §1, §2, §3
# [8] = target: T1, P-glycoprotein (MDR1) (Homo sapiens, UniProt P08183); assay: Transepithelial transport of berberine and berbamine across MDCKII-MDR1 cells; format: in vitro ADME; settings: dog, MDCK-MDR1
# T1 construct: expressed in transfected cells; host or cells: MDCKII-MDR1 (Madin-Darby canine kidney II cells overexpressing MDR1)
# T1 sequence (P08183 whole entry): as above
# Description: Transport of ^3H-CsA and ^3H-digoxin (0.5 µM and 1.0 µCi), MDR1 substrates, were performed using transport buffer consisting of HBSS with 10 mM HEPES and 25 mM D-glucose at a pH of 6.8 for the apical (A) compartment and 7.4 for the basolateral (B) compartment. Experiments were performed at 37°C, 5% CO2, and 95% relative humidity. Cells in the Transwell® inserts were washed 3 times with a transport buffer and allowed to equilibrate for 30 min prior to the addition of test compounds. […] To evaluate the efflux mechanism involved with berberine and berbamine, 100 µM of berberine and berbamine were placed in the donor chamber and 100 µL samples were collected in the receiver chamber at 0, 0.5, 1.0, 1.5, 2.0, 2.5, and 3.0 h and analyzed by HPLC. Each experiment was performed in duplicate and repeated for each condition tested. […] A 100 µL sample was taken from the donor chamber at 3 h in order to calculate the mass balance of radioactivity to determine if adsorption to the cell culture transport apparatus had occurred. Each sample was placed in 0.9 mL of scintillation fluor (Cytoscint ES, ICN, Cosa Mesa, CA, USA) and read on a Beckman LS 6500 (Palo Alto, CA, USA) scintillation counter for ^3H activity. […]
# The apparent permeability (Papp) was calculated using the following equation [40]: Papp=dQ/dt×1/A×C0 […]
# [9] = test system: P-gp; design: method as in PMID 12434406; settings: Caco-2 cells; inhibitor 1 mM; cited from earlier work
# [10] = test system: human MDR1 mRNA; assay: Real time RT-PCR of MDR1 mRNA in Caco-2 cells; format: cell-based; settings: 100 µM, positive control
# [11] = 14C-mannitol permeability (monolayer integrity) in MDCKII-MDR1 cells; format: in vitro ADME, Canine; settings: dog, MDCK-MDR1, read-out: apparent permeability (Papp)
# Description: (§9) The human intestinal epithelial cell line, LS-180 was purchased from American Type Culture Collection (ATCC) (Manassas, VA, USA) and grown in Minimum Essential Medium supplemented with 10% FBS. The Caco-2 cells were obtained from ATCC. MDCKII-MDR1 and MDCKII wild-type cell lines were a generous gift from Dr. Piet Borst (The Netherlands Cancer Research Institute). Both Caro-2 and MDCKII cells were grown in DMEM, 10% FBS, 0.1 mM non-essential amino acids, and 0.01% penicillin/streptomycin [38, 39]. […] For the transport experiments, cells were seeded, 3.0 × 10^5cells/well, onto 6-well Transwell® inserts 4.71 cm^2 (Corning Costar, Cambridge, MA, USA) and maintained until use on Days 21–25 (Caco-2, passages 23–30) and Days 6–7 (MDCKII-MDR1 and MDCKII wild-type). The integrity of the monolayers was assessed by measuring transepithelial electrical resistance (TEER) using a World Precision Instrument, EVOM (Sarasota, FL, USA) and evaluating ^14C-mannitol transport. […] For the real time RT-PCR, cells were seeded at 6 × 10^5 cells/well (Caco-2) and 1 × 10^6 cells/well (LS-180) onto 6-well Transwell® inserts 4.71 cm^2 and grown for 7 (Caco-2) and 6 (LS-180) days.
# [12] = 14C-mannitol permeability (monolayer integrity) in MDCKII wild-type cells; format: in vitro ADME, Canine; settings: dog, MDCK, read-out: apparent permeability (Papp)
# Description: as §9
# [13] = 14C-mannitol permeability (monolayer integrity) in Caco-2 cells; format: in vitro ADME, human; settings: human, Caco-2 cells, read-out: apparent permeability (Papp)
# Description: as §9
# [14] = test system: Caco-2 cells; assay: as above; format: in vitro ADME, human; settings: various treatment conditions, throughout the entire experiment
# Description: as §9
smiles,measurement,setting,value
"COc1cc2c3cc1Oc1c(OC)c(OC)cc4c1[C@@H](Cc1ccc(O)c(c1)Oc1ccc(cc1)C[C@@H]3N(C)CC2)N(C)CC4 [Berbamine, berbamine dihydrochloride]",lowest concentration with significant decrease of B to A transport of 0.5 µM 3H-CsA,[1],30 µM
same,MTT assay,[2]; 0.03 µM,□ (%MTT reduction is not significantly decreased compared with the negative control)
same,MTT assay,[2]; 0.3 µM,□ (%MTT reduction is not significantly decreased compared with the negative control)
same,MTT assay,[2]; 30 µM,□ (%MTT reduction is not significantly decreased compared with the negative control)
same,MTT assay,[2]; 100 µM,□ (%MTT reduction is not significantly decreased compared with the negative control)
same,MTT assay,[2]; 150 µM,□ (%MTT reduction is not significantly decreased compared with the negative control)
same,MTT assay,[2]; 300 µM,64.99 ± 11.46%
same,earliest time of significant increase in LDH leakage and decrease in MTT reduction,"[2]; 300 µM, time-response 2, 4, 6, 8 hr, data not shown",2 h
same,MTT assay,[3]; 0.03 µM,□ (%MTT reduction is not significantly decreased compared with the negative control)
same,MTT assay,[3]; 0.3 µM,□ (%MTT reduction is not significantly decreased compared with the negative control)
same,MTT assay,[3]; 30 µM,□ (%MTT reduction is not significantly decreased compared with the negative control)
same,MTT assay,[3]; 100 µM,□ (%MTT reduction is not significantly decreased compared with the negative control)
same,MTT assay,[3]; 150 µM,□ (%MTT reduction is not significantly decreased compared with the negative control)
same,MTT assay,[3]; 300 µM,□ (%MTT reduction is not significantly decreased compared with the negative control)
same,"efflux ratio at 3 h, 100 µM","[4]; Caco-2, 100 µM, Caco-2 cells, read-out: fold increase of Papp B to A compared with A to B",~30
same,"efflux ratio at 3 h, 100 µM","[4]; Caco-2, Caco-2 cells, read-out: efflux ratio",24.2 ± 4.5
same,"Papp A→B at 3 h, 100 µM","[4]; 100 µM, Caco-2 cells, read-out: Papp A to B direction",2.49 ×10⁻⁶ cm/s
same,"Papp B→A at 3 h, 100 µM","[4]; 100 µM, Caco-2 cells, read-out: Papp B to A direction",60.3 ×10⁻⁶ cm/s
same,transport in the A to B direction,"[5]; 100 µM, Caco-2 cells",0.39 nmol/min
same,transport in the B to A direction,"[5]; 100 µM, Caco-2 cells",5.94 nmol/min
same,extent of efflux relative to berberine,[5]; Caco-2 and MDCKII-MDR1 cells,~5 fold
same,MTT assay,[6]; 0.03 µM,□ (%MTT reduction is not significantly decreased compared with the negative control)
same,MTT assay,[6]; 0.3 µM,□ (%MTT reduction is not significantly decreased compared with the negative control)
same,MTT assay,[6]; 30 µM,□ (%MTT reduction is not significantly decreased compared with the negative control)
same,MTT assay,[6]; 100 µM,□ (%MTT reduction is not significantly decreased compared with the negative control)
same,MTT assay,[6]; 150 µM,□ (%MTT reduction is not significantly decreased compared with the negative control)
same,MTT assay,[6]; 300 µM,64.32 ± 13.1%
same,LDH assay,[7],43.88 ± 7.44%
same,"efflux ratio at 3 h, 100 µM",[8],27.4 ± 5.1
COc1cccc2c1C(=O)c1c(O)c3c(c(O)c1C2=O)C[C@@](O)(C(C)=O)C[C@@H]3O[C@H]1C[C@H](N)[C@H](O)[C@H](C)O1 [daunomycin],inhibition of the efflux of 20 µM berberine,[9],100%
N[C@@H](Cc1cc(I)c(Oc2cc(I)c(O)c(I)c2)c(I)c1)C(=O)O [levothyroxine],P-gp (MDR1) mRNA,[10],significantly increase
OC[C@@H](O)[C@@H](O)[C@H](O)[C@H](O)CO [mannitol],Papp,[11],2.38 ± 0.13 ×10⁻⁶ cm/s
same,Papp,[12],2.16 ± 0.72 ×10⁻⁶ cm/s
same,Papp,[13],2.09 ± 0.4 ×10⁻⁶ cm/s
same,transport rate,[14],less than 1 % per hour
COC(=O)c1ccccc1-c1c2ccc(=N)cc-2oc2cc(N)ccc12 [rhodamine123],inhibition of the efflux of 20 µM berberine,[9],100%
